The results in this text go back to patent US9975878B2, “Substituted triazine BMI-1 inhibitors” (PTC Therapeutics, Inc., priority 2013, dated 2018).

The test system of the first series is Bmi-1 protein. Briefly: Sandwich ELISA Assay: Bmi-1 protein level in HT-1080 cells treated with test compounds. The format is cell-based. Put shortly: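 HT-1080 cells exposed to compounds (final DMSO 0.5%) for 40-48 h at 37° C, 5% CO2, then lysed. Bmi-1 quantified by sandwich ELISA (mouse anti-Bmi-1 capture, rabbit anti-Bmi-1 detection, HRP anti-rabbit, TMB), read at OD450 with OD570 reference, against recombinant GST-Bmi-1 standard curve (0-8000 pg/mL).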
The EC50 is the concentration that produces a half-maximal response. Lower therefore signals greater potency. `Nc1nc(Nc2ccc(OC(F)F)nc2)nc(-n2c(C3CC3)nc3c(F)cc(F)cc32)n1` [Cpd 91, 6-(2-cyclopropyl-4,6-difluoro-1H-benzimidazol-1-yl)-N-[6-(difluoromethoxy)pyridin-3-yl]-1,3,5-triazine-2,4-diamine] had an EC50 of 10 to 100 nM. The same measure, in the same setting: the value for `Nc1nc(Nc2ccc(OC(F)(F)F)cc2)nc(-n2c(C3CC3)nc3c(F)cc(F)cc32)n1` [Cpd 92, 6-(2-cyclopropyl-4,6-difluoro-1H-benzimidazol-1-yl)-N-[4-(trifluoromethoxy)phenyl]-1,3,5-triazine-2,4-diamine] was 100 to 3000 nM; that for `Nc1nc(Nc2ccc(OC(F)F)cc2)nc(-n2c(CF)nc3ccccc32)n1` [Cpd 108, N-[4-(difluoromethoxy)phenyl]-6-[2-(fluoromethyl)-1H-benzimidazol-1-yl]-1,3,5-triazine-2,4-diamine] was 10 to 100 nM. As for `Nc1nc(Nc2ccc(OC(F)F)c(F)c2)nc(-n2c(C(F)F)nc3ccccc32)n1` [Cpd 104, N-[4-(difluoromethoxy)-3-fluorophenyl]-6-[2-(difluoromethyl)-1H-benzimidazol-1-yl]-1,3,5-triazine-2,4-diamine], the EC50 lay in the range of 10 to 100 nM. With `Nc1nc(Nc2ccc(OC(F)(F)F)cc2)nc(-n2c(C(F)F)nc3ccccc32)n1` [Cpd 106, 6-[2-(difluoromethyl)-1H-benzimidazol-1-yl]-N-[4-(trifluoromethoxy)phenyl]-1,3,5-triazine-2,4-diamine], the EC50 was in the range of 10 to 100 nM. Molecule `CCc1nc2cc(F)ccc2n1-c1nc(N)nc(Nc2ccc(OC(F)F)cc2)n1` [Cpd 59, N-[4-(difluoromethoxy)phenyl]-6-(2-ethyl-5-fluoro-1H-benzimidazol-1-yl)-1,3,5-triazine-2,4-diamine] had an EC50 of 10 to 100 nM. The molecule `Cc1nc2ccccc2n1-c1nc(NCCO)nc(Nc2cnc3ccccc3c2)n1` [Cpd 21, 2-{[4-(2-methyl-1H-benzimidazol-1-yl)-6-(quinolin-3-ylamino)-1,3,5-triazin-2-yl]amino}ethanol] gave an EC50 of 10 to 100 nM. The same measure, in the same setting: the value for `Fc1ccc2nc(C3CC3)n(-c3cnnc(Nc4ccc(OC(F)F)cc4)n3)c2c1` [Cpd 138, 5-(2-cyclopropyl-6-fluoro-1H-benzimidazol-1-yl)-N-[4-(difluoromethoxy)phenyl]-1,2,4-triazin-3-amine] was 100 to 3000 nM; that for `CCc1nn2ccccc2c1-c1nc(N)nc(Nc2ccc(C(F)(F)F)cc2)n1` [Cpd 128, 6-(2-ethylpyrazolo[1,5-a]pyridin-3-yl)-N-[4-(trifluoromethyl)phenyl]-1,3,5-triazine-2,4-diamine] was 100 to 3000 nM. The same measure, in the same setting: to `Cc1nc2ccccc2n1-c1nc(N)nc(Nc2ccc(C(F)(F)F)cc2)n1` [Cpd 2, 6-(2-methyl-1H-benzimidazol-1-yl)-N-[4-(trifluoromethyl)phenyl]-1,3,5-triazine-2,4-diamine] belongs 10 to 100 nM; to `Nc1nc(Nc2ccc(C(F)(F)F)cc2)nc(-n2c(CF)nc3ccccc32)n1` [Cpd 107, 6-[2-(fluoromethyl)-1H-benzimidazol-1-yl]-N-[4-(trifluoromethyl)phenyl]-1,3,5-triazine-2,4-diamine], 100 to 3000 nM; to `Nc1nc(Nc2ccc(OC(F)F)cc2)nc(-c2c(C(F)(F)F)nc3ccc(F)cn23)n1` [Cpd 73, N-[4-(difluoromethoxy)phenyl]-6-[6-fluoro-2-(trifluoromethyl)imidazo[1,2-a]pyridin-3-yl]-1,3,5-triazine-2,4-diamine], 10 to 100 nM. `Cc1nc2ncc(Br)cc2n1-c1nc(N)nc(Nc2ccc(OC(F)F)c(F)c2)n1` [Cpd 39, 6-(6-bromo-2-methyl-1H-imidazo[4,5-b]pyridin-1-yl)-N-[4-(difluoromethoxy)-3-fluorophenyl]-1,3,5-triazine-2,4-diamine] had an EC50 of 10 to 100 nM. Same read-out and setting: to `Nc1nc(Nc2ccc(OC(F)F)c(F)c2)nc(-n2c(C3CC3)nc3c(F)cccc32)n1` [Cpd 87, 6-(2-cyclopropyl-4-fluoro-1H-benzimidazol-1-yl)-N-[4-(difluoromethoxy)-3-fluorophenyl]-1,3,5-triazine-2,4-diamine] belongs 10 to 100 nM; to `Cc1nc2c(F)cccc2n1-c1nc(N)nc(Nc2ccc(OC(F)F)c(F)c2)n1` [Cpd 97, N-[4-(difluoromethoxy)-3-fluorophenyl]-6-(4-fluoro-2-methyl-1H-benzimidazol-1-yl)-1,3,5-triazine-2,4-diamine], 100 to 3000 nM. In turn, `Cc1nc2ccccc2n1-c1nc(N)nc(Nc2cccc(OC(F)F)c2)n1` [Cpd 93, N-[3-(difluoromethoxy)phenyl]-6-(2-methyl-1H-benzimidazol-1-yl)-1,3,5-triazine-2,4-diamine] registered an EC50 of 100 to 3000 nM. On the same count and under the same terms, the value for `Cc1nc2cc(Cl)ccc2n1-c1nc(N)nc(Nc2ccc(OC(F)F)cc2)n1` [Cpd 80, 6-(5-chloro-2-methyl-1H-benzimidazol-1-yl)-N-[4-(difluoromethoxy)phenyl]-1,3,5-triazine-2,4-diamine] was 100 to 3000 nM; that for `CCc1nc2ccccc2n1-c1nc(N)nc(Nc2ccc(C)cc2)n1` [Cpd 160, 6-(2-ethyl-1H-benzimidazol-1-yl)-N-(4-methylphenyl)-1,3,5-triazine-2,4-diamine] was 1 to 10 nM; that for `COc1ccc(Nc2nc(N)nc(-n3c(C4CC4)nc4cc(F)ccc43)n2)cc1` [Cpd 191, 6-(2-cyclopropyl-5-fluoro-1H-benzimidazol-1-yl)-N-(4-methoxyphenyl)-1,3,5-triazine-2,4-diamine] was 10 to 100 nM. Turning to `CCc1nc2ccccc2n1-c1nc(N)nc(Nc2cccc(C)c2)n1` [Cpd 161, 6-(2-ethyl-1H-benzimidazol-1-yl)-N-(3-methylphenyl)-1,3,5-triazine-2,4-diamine], the EC50 lay in the range of 100 to 3000 nM.

With `CCc1nc2c(F)cc(F)cc2n1-c1nc(N)nc(Nc2ccc(OC(F)F)cc2)n1` [Cpd 49, N-[4-(difluoromethoxy)phenyl]-6-(2-ethyl-4,6-difluoro-1H-benzimidazol-1-yl)-1,3,5-triazine-2,4-diamine], the EC50 was 10 to 100 nM. `Nc1nc(Nc2ccc(OC(F)F)cc2)nc(-c2c(C(F)(F)F)nc3ccccn23)n1` [Cpd 72, N-[4-(difluoromethoxy)phenyl]-6-[2-(trifluoromethyl)imidazo[1,2-a]pyridin-3-yl]-1,3,5-triazine-2,4-diamine]: the EC50 is 10 to 100 nM.

In the case of `Nc1nc(Nc2ccc(Cl)cc2)nc(-n2c(C3CC3)nc3c(F)cccc32)n1` [Cpd 184, N-(4-chlorophenyl)-6-(2-cyclopropyl-4-fluoro-1H-benzimidazol-1-yl)-1,3,5-triazine-2,4-diamine], the half-maximal effective concentration (EC50) was in the range of 10 to 100 nM. Turning to `Cc1nc2ccccc2n1-c1cnnc(Nc2ccc(OC(F)F)cc2)n1` [Cpd 202, N-[4-(difluoromethoxy)phenyl]-5-(2-methyl-1H-benzimidazol-1-yl)-1,2,4-triazin-3-amine], the EC50 was in the range of 100 to 3000 nM. Consider `CCc1nc2cc(F)ccc2n1-c1nc(N)nc(Nc2ccc(Cl)cc2)n1` [Cpd 175, N-(4-chlorophenyl)-6-(2-ethyl-5-fluoro-1H-benzimidazol-1-yl)-1,3,5-triazine-2,4-diamine], for which the EC50 lay in the range of 100 to 3000 nM.

System in the next series: not given
Assay: not given
For orientation: melting point means the temperature, or range, at which the solid turns liquid. With `Nc1nc(Nc2ccc(OC(F)F)nc2)nc(-n2c(C3CC3)nc3c(F)cc(F)cc32)n1` [Cpd 91, 6-(2-cyclopropyl-4,6-difluoro-1H-benzimidazol-1-yl)-N-[6-(difluoromethoxy)pyridin-3-yl]-1,3,5-triazine-2,4-diamine], the melting point fell in the range of 128 to 130 °C. Same read-out and setting: the value for `Nc1nc(Nc2ccc(OC(F)(F)F)cc2)nc(-n2c(C3CC3)nc3c(F)cc(F)cc32)n1` [Cpd 92, 6-(2-cyclopropyl-4,6-difluoro-1H-benzimidazol-1-yl)-N-[4-(trifluoromethoxy)phenyl]-1,3,5-triazine-2,4-diamine] was 213 to 215 °C. For `Nc1nc(Nc2ccc(OC(F)F)cc2)nc(-n2c(CF)nc3ccccc32)n1` [Cpd 108, N-[4-(difluoromethoxy)phenyl]-6-[2-(fluoromethyl)-1H-benzimidazol-1-yl]-1,3,5-triazine-2,4-diamine], the melting point lay in the range of 166 to 168 °C. Same read-out and setting: to `Nc1nc(Nc2ccc(OC(F)F)c(F)c2)nc(-n2c(C(F)F)nc3ccccc32)n1` [Cpd 104, N-[4-(difluoromethoxy)-3-fluorophenyl]-6-[2-(difluoromethyl)-1H-benzimidazol-1-yl]-1,3,5-triazine-2,4-diamine] belongs 201 to 203 °C; to `Nc1nc(Nc2ccc(OC(F)(F)F)cc2)nc(-n2c(C(F)F)nc3ccccc32)n1` [Cpd 106, 6-[2-(difluoromethyl)-1H-benzimidazol-1-yl]-N-[4-(trifluoromethoxy)phenyl]-1,3,5-triazine-2,4-diamine], 138 to 139 °C.
